# According to patent US12479816B2, “20-HETE formation inhibitors” (UNIVERSITY OF PITTSBURGH—OF THE COMMONWEALTH SYSTEM OF …, priority 2019, dated 2025):
# Where two headings read alike, the source gives them in different places.
# Tests used:
# [1] = test system: 20-HETE formation (CYP4) in HLM; assay: Inhibition of 20-HETE formation at 250 or 500 nM in HLM microsomal incubations; type: biochemical, human; conditions: 500 nM compound; HLM 300 μg/ml, AA 100 μM, 20 min
# In short: (§1)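 Liver or kidney microsomes (300 μg/ml) or rCYP4F2 (25 pmol/mL) were incubated with 100 μM arachidonic acid, 1 mM NADPH and compound at 250 or 500 nM in 0.12 M potassium phosphate/5 mM MgCl2 for 20 min at 37 °C. 20-HETE was measured by UPLC-MS/MS against 20-HETE-d6 and expressed as % of vehicle (n=3).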
# [2] = test system: 20-HETE formation (CYP4) in RLM; assay: Inhibition of 20-HETE formation at 250 or 500 nM in RLM microsomal incubations; type: biochemical, rat; conditions: 500 nM compound; RLM 300 μg/ml
# In short: as §1
# rCYP4F2 = biological target: T1, rCYP4F2 (Homo sapiens, UniProt P78329); assay: Inhibition of 20-HETE formation at 250 or 500 nM in rCYP4F2 incubations; type: biochemical; conditions: 500 nM compound; rCYP4F2 25 pmol/mL; read-out: rCYP4F2 % inh. @ 500 nM
# T1 sequence (P78329 5-520): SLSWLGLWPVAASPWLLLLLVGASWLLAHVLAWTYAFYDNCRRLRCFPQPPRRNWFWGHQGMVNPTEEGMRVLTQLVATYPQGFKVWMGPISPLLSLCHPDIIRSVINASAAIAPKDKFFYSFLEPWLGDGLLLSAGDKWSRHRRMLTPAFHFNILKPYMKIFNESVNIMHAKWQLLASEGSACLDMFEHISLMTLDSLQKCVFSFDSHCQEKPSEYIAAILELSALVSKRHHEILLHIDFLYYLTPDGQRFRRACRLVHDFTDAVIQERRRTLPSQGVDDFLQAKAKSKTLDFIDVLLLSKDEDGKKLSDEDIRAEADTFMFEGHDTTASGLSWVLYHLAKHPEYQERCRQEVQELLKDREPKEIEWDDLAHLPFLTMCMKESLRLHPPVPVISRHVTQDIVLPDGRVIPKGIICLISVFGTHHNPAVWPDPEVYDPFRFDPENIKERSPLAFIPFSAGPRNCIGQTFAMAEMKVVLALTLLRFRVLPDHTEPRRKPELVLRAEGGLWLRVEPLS
# In short: as §1
# [3] = test system: 20-HETE formation (CYP4) in RKM; assay: Inhibition of 20-HETE formation at 250 or 500 nM in RKM microsomal incubations; type: biochemical, rat; conditions: 500 nM compound; RKM 300 μg/ml
# Procedure: To screen the inhibitory effects against 20-HETE formation, compounds were screened in HLM, RLM, RKM and rCYP4F2 microsomal incubations. Compounds dissolved in either 100% methanol or 100% DMSO to yield 10 mM stock solution. Microsomal incubations containing HLM, RLM, RKM (300 μg/ml) or rCYP4F2 (25 pmol/mL), AA (100 μM), NADPH (1 mM) treated with test compounds at various concentrations (500 nM or 250 nM) in a 1 ml total volume in incubation buffer (0.12 M potassium phosphate buffer containing 5 mM magnesium chloride). Reaction was started by adding NADPH to the incubates and was carried out at 37° C. in a shaking water bath for 20 min. Reaction was stopped by placing tubes on ice, followed by adding 125 μl 20-HETE-d6 as internal standard to each sample. Microsomal incubations were extracted with 3 ml ethyl ether twice, dried down under nitrogen gas and reconstituted in 125 μl 80:20 methanol:deionized H2O for analysis. 20-HETE formation was quantified using a validated UPLC-MS/MS assay and normalized by vehicle group. Each compound had three replications (n=3). Vehicle group was used as control to calculate percentage of 20-HETE formation rate. HET0016 (250 nM) was used as positive control. Incubates without NADPH group served as the negative control. An Acquity ultra performance LC autosampler (Waters, Milford, MA) was used to isolate 20-HETE on an UPLC BEH C18, 1.7 μm (2.1×100 mm) reversed-phase column (Waters, Milford, MA) protected by a guard column (2.1×5 mm; Waters, Milford, MA) of the same packing material. Column temperature was maintained at 55° C. Mobile phases consisted of 0.005% acetic acid, 5% acetonitrile in deionized water (A) and 0.005% acetic acid in acetonitrile (B). The flow rate for mobile phases is 0.5 ml/min. The initial mixture of mobile phase was 65:35 of A and B. Mobile phase B increased at 0.4 minutes after injection from 35% to 70% in a linear gradient over 4 minutes, and again increased to 95% over 0.5 minutes where it remained for 0.3 minutes. This was followed by a linear return to initial conditions over 0.1 minutes with a 1.5 minute pre-equilibration period prior to the next sample run. Total run time was 6.4 minutes for each injection. Injection volumes were 7.5 μl. Mass spectrometric analysis was carried out using a TSQ Quantum Ultra (Thermo Fisher Scientific, San Jose, CA) triple quadrupole mass spectrometer using heated electrospray ionization (HESI). Mass spectrometer was operated in negative selective reaction monitoring (SRM) mode with unit resolutions at both Q1 and Q3 set at 0.70 Da full width at half maximum. Scan time was set at 0.01 s and collision gas pressure was 1.3 mTorr. Quantitation of 20-HETE by SRM was performed by monitoring the m/z. Analytical data was acquired and analyzed using Xcaliber 3.0 data system (ThermoFinnigan, San Jose, CA).
# [4] = Turbidometric solubility determination; type: physicochemical; conditions: PBS with 1% DMSO, aqueous buffer, kinetic from dmso stock, room temperature
# Procedure: Solubility determinations shown in Table 3 were obtained turbidometrically and in a manner similar to the one described in Perez et al., J. Biomol. Screen, 2015, 20(2), 254-64. The method requires small volumes of 100× stock concentration drug solution to be prepared in DMSO 0, 0.23, 0.47, 0.94, 1.88, 3.75, 7.5, 15.0, 30.0 and […]. The stock drug concentrations are then diluted 1:100 added into triplicate wells containing PBS in a clear bottom 384 well microtiter to achieve final testing concentrations of 0, 2.3, 4.7, 9.4, 18.8, 37.5, 75, 150, 300, 600 μM in 1% DMSO. The plate is allowed to equilibrate with constant shaking for 2 hours at room temperature. The plate is then placed in a SpectroMax V plate reader to measure absorbance at 620 nm. Increase in absorbance is evident in test wells which precipitation of the compound is evident. The plot of OD620 vs. drug concentration is used to calculate the maximum solubility limit as determined by a statistically significant increase in absorbance above the background levels.
# [5] = test system: 20-HETE formation (CYP4) in HLM; assay: IC50 determination, 20-HETE formation in HLM; type: biochemical, human; conditions: HLM 300 μg/ml, AA 100 μM, 12 concentrations
# Procedure: Microsomal incubations contained HLM, RLM (300 μg/ml), AA (100 μM), NADPH (1 mM) and test compounds at 12 concentrations (0.1 nM-50 μM) in a 1 ml total volume in microsomal incubation buffer (0.12 M potassium phosphate buffer containing 5 mM magnesium chloride). Reaction was started by adding NADPH to the incubates and was carried out at 37° C. in a shaking water bath for 20 min. Reaction was stopped by placing tubes on ice, followed by adding 12.5 μl 20-HETE-d6 as internal standard to each sample. Microsomal incubations were extracted with 3 ml ethyl ether twice, dried down under nitrogen gas and reconstituted in 125 μl 80:20 methanol:deionized H2O for analysis. 20-HETE formation was quantified using the validated UPLC-MS/MS assay described above and normalized by vehicle group. HET0016 (250 nM) was used as positive control. Incubates without NADPH group served as the negative control. IC50 was determined by fitting the dose-response curve using Graphpad Prism nonlinear regression.
Structure (SMILES),HLM % inh. @ 500 nM [1],RLM % inh. @ 500 nM [2],inhibition at 0.5 µM (rCYP4F2),RKM % inh. @ 500 nM [3],"solubility at 2 h ([4]; OD620, read-out: Max Solub)",solubility at 2 h ([4]; read-out: Solubility_ug/mL),IC50 [5]
"CC(=O)N(C)c1ccc(C2CCN(c3ccn[nH]3)CC2)cc1 [Compound 27, N-(4-(1-(1H-Pyrazol-5-yl)piperidin-4-yl)phenyl)-N-methylacetamide]",20.00%,8.00%,14%,0.00%,> 600 µM,179 µg/mL,
"CC(=O)Nc1ccc(C2CCN(c3ccn[nH]3)CC2)cc1 [Compound 29, N-(4-(1-(1H-Pyrazol-5-yl)piperidin-4-yl)phenyl)acetamide]",60.00%,38.00%,55%,7.00%,> 600 µM,171 µg/mL,0.17 µM
"COc1ccc(C2CCN(c3ccn[nH]3)CC2)cn1 [Compound 31, 5-(1-(1H-Pyrazol-5-yl)piperidin-4-yl)-2-methoxypyridine]",35.00%,0.00%,44%,9.00%,> 600 µM,155 µg/mL,
"COc1ccc(C2CCN(c3cn[nH]c3)CC2)cn1 [Compound 32, 5-(1-(1H-Pyrazol-4-yl)piperidin-4-yl)-2-methoxypyridine]",59.00%,0.00%,67%,25.00%,391 µM,101 µg/mL,0.13 µM

# Results, then the compound that gave them:
HLM % inh. @ 500 nM [1],RLM % inh. @ 500 nM [2],inhibition at 0.5 µM (rCYP4F2),RKM % inh. @ 500 nM [3],"solubility at 2 h ([4]; OD620, read-out: Max Solub)",solubility at 2 h ([4]; read-out: Solubility_ug/mL),IC50 [5],Structure (SMILES)
72.00%,12.00%,69%,16.00%,,,0.18 µM,"Cc1cccc(C2CCN(c3ccn[nH]3)CC2)c1 [Compound 33, 1-(1H-Pyrazol-5-yl)-4-(m-tolyl)piperidine]"
46.00%,0.00%,61%,4.00%,752 µM,,0.65 µM,"Cc1ccccc1C1CCN(c2cn[nH]c2)CC1 [Compound 36, 1-(1H-Pyrazol-4-yl)-4-(o-tolyl)piperidine]"
32.00%,0.00%,0%,0.00%,369 µM,108 µg/mL,,"O=S(=O)(c1ccccc1)C1CCN(c2ccn[nH]2)CC1 [Compound 41, 4-(Phenylsulfonyl)-1-(1H-pyrazol-5-yl)piperidine]"
83.1%,19.30%,66%,,353 µM,,0.0474 µM,"O=C(c1ccc(C2CCN(c3cn[nH]c3)CC2)c(F)c1)N1CCCC1 [Compound 81, (4-(1-(1H-Pyrazol-4-yl)piperidin-4-yl)-3-fluorophenyl)(pyrrolidin-1-yl)methanone]"
